Columns and labels:
comédons = system: comédons; parameters: species or system souris femelles atrichis «rhinocéros»; conditions: in vivo
PI[…] = format: cell-based, Pityrosporum ovale

| Structure (SMILES) | D (grand diamètre) (comédons) | Rapport d/D (comédons) | d (diamètre de l'orifice) (comédons) | C.M.I. (PI[…]) |
| --- | --- | --- | --- | --- |
| O=C(OOC(=O)c1ccccc1)c1ccccc1 [Peroxyde de benzoyle, peroxyde de benzoyle, reference compound] | 27,0±1,8 unités arbitraires | 0,54 | 14,7±2,1 unités arbitraires |  |
| O=C(OOC(=O)c1cccs1)c1cccs1 [Peroxyde de thénoyle, peroxyde de thénoyle] | 23,5±1,6 unités arbitraires | 0,90 | 21,1±1,7 unités arbitraires | 250 µg/mL |

Source: patent EP0004810B1 (priority 1978, dated 1979)
